In patent US5747462A, “Pharmaceutically active compounds and their use” (priority 1995, dated 1998):

Assay: quantitative evaluation of intradermoplantar edema induced by lambda-carrageenan in guinea pigs (plethysmometer)
Details: for anti-inflammatory effect with respect to the carrageenan standard (S2): p<0.000, one way variance analysis and Tukey's multiple comparisons, at the experimental doses used
Protocol: This inoculation initiates an inflammatory process defined as the standard inflammatory constant of all the preclinical trials.
The comparative evaluation is performed by measuring with a plethysmometer the change in volume in milliliters of mercury and expressing the results in absolute volume (ml) and relative percentage (°/l or %) values versus the variable of time in hours (h).
The inflammatory response is induced by inoculating carrageenan into the animal's plantar pad, and the change in volume is measured with a plethysmometer in milliliters of mercury.
The technique employed is adapted to a biological model of guinea pigs, and evaluates the intensity of the edema as the increase or decrease in the proportion of relative inflamed volume. The equation which describes this variable is: postinoculation volume minus preinoculation control volume divided by preinoculation control volume.
The method of measurement is composed of three basic steps:
Measurement of the clinical parameter inflammation volume obtained on inoculating an inflammatory noxa. This procedure constitutes the inflammatory standard (inflammatory control).
Measurement of the change in the clinical parameter inflammation volume by applying to the inflammatory standard a drug recognized as anti-inflammatory reference substance (anti-inflammatory control).
Measurement of the change in the clinical parameter inflammation volume by applying to the inflammatory standard an anti-inflammatory composition and/or subcompositions (invention).
Standard (S2): 0.1 ml of the pharmaceutically acceptable injectable formulation containing 1% of lambda-carrageenan, prepared according to standard processes in sterile water for injections and administered via the intradermoplantar route. Single dose of carrageenan between 3.6 and 3.9 mg/kg animal body weight.
Reference substance (P1): 2.0 ml of the pharmaceutically acceptable injectable formulation containing 6.25% of acetylsalicylic acid (ASA), prepared according to standard processes in sterile water for injections and administered intraperitoneally. Single dose of ASA, between 418.1 and 490.2 mg/kg animal body weight.

Row | SMILES | % Inflammation (0 h, ASA 418.1-490.2 mg/kg i.p. single dose) | % Inflammation (1 h, ASA 418.1-490.2 mg/kg i.p. single dose) | % Inflammation (2 h, ASA 418.1-490.2 mg/kg i.p. single dose) | % Inflammation (3 h, ASA 418.1-490.2 mg/kg i.p. single dose) | % Inflammation (4 h, ASA 418.1-490.2 mg/kg i.p. single dose) | % Inflammation (5 h, ASA 418.1-490.2 mg/kg i.p. single dose) | % Inflammation (6 h, ASA 418.1-490.2 mg/kg i.p. single dose) | % Inflammation (7 h, ASA 418.1-490.2 mg/kg i.p. single dose) | anti-inflammatory effect with respect to the carrageenan standard (S2) | % Inflammation (0 h, diclofenac sodium 94.8-105.8 mg/kg i.p. single dose) | % Inflammation (1 h, diclofenac sodium 94.8-105.8 mg/kg i.p. single dose) | % Inflammation (2 h, diclofenac sodium 94.8-105.8 mg/kg i.p. single dose) | % Inflammation (5 h, diclofenac sodium 94.8-105.8 mg/kg i.p. single dose) | % Inflammation (6 h, diclofenac sodium 94.8-105.8 mg/kg i.p. single dose)
1 | CC(=O)Oc1ccccc1C(=O)O [ASA (P1), acetylsalicylic acid] | 00.000% | 05.620% | 13.700% | 10.450% | 12.020% | 12.100% | 10.450% | 09.810% | significant anti-inflammatory effect |  |  |  |  | 
2 | O=C(O)Cc1ccccc1Nc1c(Cl)cccc1Cl [DICLO (P2), diclofenac sodium] |  |  |  |  |  |  |  |  | significant anti-inflammatory effect | 00.000% | 12.500% | 12.600% | 11.400% | 12.300%
